Data published in patent publication US11363816B2, “4-amino-6-(heterocyclic)picolinates and 6-amino-2-(heterocyclic)pyramidine-4-carboxylates and their use as herbicides” (Dow AgroSciences LLC, priority 2017, dated 2022).

Legend:
Type in all cases: in vivo
[1] = system: MATCH=Matricaria recutita L. (wild chamomile); assay: Postemergent herbicidal activity in the greenhouse; settings: 21-28 DAAA
Description: (§1) Seeds of the desired test plant species were planted in Sun Gro MetroMix® 306 planting mixture, which typically has a pH of 6.0 to 6.8 and an organic matter content of about 30 percent, in plastic pots with a surface area of 103.2 square centimeters (cm^2). When required to ensure good germination and healthy plants, a fungicide treatment and/or other chemical or physical treatment was applied. The plants were grown for 7-36 days (d) in a greenhouse with an approximate 14 hour (h) photoperiod which was maintained at about 18° C. during the day and 17° C. during the night. Nutrients and water were added on a regular basis and supplemental lighting was provided with overhead metal halide 1000-Watt lamps as necessary. The plants were employed for testing when they reached the second or third true leaf stage.
(§2) An aliquot of formulated Compound 5 (100 grams acid equivalent per liter (g ae/L); emusifiable concentrate (EC)), Compound 6 (100 g ae/L; EC) or Compound 7 (100 g ae/L; EC) was placed in a 25 mL glass vial and diluted in a volume of 1.25% (volume per volume (v/v)) aqueous Actirob B esterified rapeseed oil to obtain a stock solution. The concentrated stock solutions were diluted with an aqueous mixture of 1.25% v/v of aqueous Actirob B esterified rapeseed oil to provide the appropriate application rates. Compound requirements are based upon a 12 mL application volume at a rate of 187 liters per hectare (L/ha). Formulated compounds were applied to the plant material with an overhead Mandel track sprayer equipped with 8002E nozzles calibrated to deliver 187 L/ha over an application area of 0.503 square meters (m^2) at a spray height of 18 inches ([…]) above average plant canopy. Control plants were sprayed in the same manner with the solvent blank.
(§3) The treated plants and control plants were placed in a greenhouse as described above and watered by subirrigation to prevent washoff of the test compounds. After 20-22 d, the condition of the test plants as compared with that of the control plants was determined visually and scored on a scale of 0 to 100 percent where 0 corresponds to no injury and 100 corresponds to complete kill. […]
(§4) The values reported are means.

[2] = system: MATIN=Matricaria inodora (scentless mayweed); assay: Postemergent herbicidal activity in the greenhouse; settings: 21-28 DAAA
Description: as §1, §2, §3, §4

[3] = system: CHEAL=Chenopodium album L. (common lambsquarters); assay: Postemergence field trial, Nisku, Alberta, Canada
Description: (§5) Field trials were established in Canada (in Ellerslie, Alberta; Nisku, Alberta and Hanley, Saskatchewan) to evaluate the efficacy of Compound 5, Compound 6, and Compound 7. Trials were designed as randomized complete blocks with four replicates. Trials were established in spring wheat with natural weed population with plot sizes of 2-3 meters (m) by 8-10 m (width×length). The crops were grown using normal cultural practices for fertilization, seeding, and maintenance to ensure good growth of the crop.
(§6) All herbicide treatments were applied post-emergence with applications made to the crops at BBCH (Phenological development stages of a plant) 14 to 22 growth stage. Herbicides were applied with backpack or bicycle sprayers using carbon dioxide (CO2) as a propellant. The sprayers utilized flat fan air-induction spray nozzles calibrated to deliver a uniform spray pattern that provided thorough coverage of the foliage using a 100 L/ha spray volume. All treatments were applied with methylated seed oil (MSO) at 1.25% v/v. Phytotoxicity to the weeds was assessed visually at several intervals after application as percent overall control, compared to an untreated control plot. In general, four replicates were assessed for each treatment. All treatment results are an average of four replicates.
(§7) Compound 5, Compound 6 and Compound 7 were applied as emulsifiable concentrate (EC) formulations at 100 g ae/L EC, respectively.

[4] = system: STEME=Stellaria media (L.) Vill. (common chickweed); assay: Postemergence field trial, Nisku, Alberta, Canada
Description: as §5, §6, §7

[5] = system: PAPRH=Papaver rhoeas L. (common poppy); assay: Postemergence field trial, Granon, Spain (Table 5)
Description: (§8) Field trials were established in Spain (Banares and Granon) and Germany (Bielefeld) to evaluate the efficacy of Compound 5, Compound 6, and Compound 7. Trials were designed as randomized complete blocks with three to four replicates. Trials were established in winter wheat with natural weed population with plot sizes of 2-2.5 meters (m) by 6-8 m (width×length). The crops were grown using normal cultural practices for fertilization, seeding, and maintenance to ensure good growth of the crop. All herbicide treatments were applied post-emergence with applications made to the crops at the BBCH 21 to 23 growth stage. Herbicides were applied with backpack or bicycle sprayers using air as a propellant. The sprayers utilized flat fan air-induction spray nozzles calibrated to deliver a uniform spray pattern that provided thorough coverage of the foliage using a 200 L/ha spray volume. All treatments were applied with methylated seed oil (MSO) at 1.25% v/v. Phytotoxicity to the weeds was assessed visually at several intervals after application as percent overall control, compared to an untreated control plot. In general, three to four replicates were assessed for each treatment. All treatment results are an average of three or four replicates. Compound 5, Compound 6, and Compound 7 were applied as emulsifiable concentrate (EC) formulations at 100 g ae/L EC, respectively.

[6] = system: VERHE=Veronica hederifolia (ivyleaved speedwell); assay: Postemergence field trial, Granon, Spain (Table 5)
Description: as §8

[7] = system: FUMOF=Fumaria officinalis (common fumitory); assay: Postemergence field trial, Banares, Spain
Description: as §8

[8] = system: PAPRH=Papaver rhoeas L. (common poppy); assay: Postemergence field trial, Banares, Spain
Description: as §8

[9] = system: VERHE=Veronica hederifolia (ivyleaved speedwell); assay: Postemergence field trial, Banares, Spain
Description: as §8

[10] = system: CENCY=Centaurea cyanus (cornflower); assay: Postemergence field trial, Bielefed, Germany
Description: as §8

[11] = system: PAPRH=Papaver rhoeas L. (common poppy); assay: Postemergence field trial, Bielefed, Germany
Description: as §8

Row | SMILES | Percent (%) Visual Control MATCH ([1]; 10 g ae/ha) [%] | Percent (%) Visual Control MATCH ([1]; 20 g ae/ha) [%] | Percent (%) Visual Control MATIN ([2]; 10 g ae/ha) [%] | Percent (%) Visual Control MATIN ([2]; 20 g ae/ha) [%] | Percent (%) Visual Control CHEAL 51DAAA ([3]; 10 g ae/ha) [%] | Percent (%) Visual Control CHEAL 51DAAA ([3]; 20 g ae/ha) [%] | Percent (%) Visual Control CHEAL 51DAAA ([3]; 40 g ae/ha) [%] | Percent (%) Visual Control STEME 28DAAA ([4]; 10 g ae/ha) [%] | Percent (%) Visual Control STEME 51DAAA ([4]; 10 g ae/ha) [%] | Percent (%) Visual Control STEME 28DAAA ([4]; 20 g ae/ha) [%] | Percent (%) Visual Control STEME 51DAAA ([4]; 20 g ae/ha) [%] | Percent (%) Visual Control STEME 28DAAA ([4]; 40 g ae/ha) [%] | Percent (%) Visual Control STEME 51DAAA ([4]; 40 g ae/ha) [%] | Percent (%) Visual Control PAPRH 84DAAA ([5]; 5 g ae/ha) [%] | Percent (%) Visual Control PAPRH 84DAAA ([5]; 10 g ae/ha) [%] | Percent (%) Visual Control PAPRH 84DAAA ([5]; 20 g ae/ha) [%] | Percent (%) Visual Control VERHE 34DAAA ([6]; 5 g ae/ha) [%] | Percent (%) Visual Control VERHE 34DAAA ([6]; 10 g ae/ha) [%] | Percent (%) Visual Control VERHE 34DAAA ([6]; 20 g ae/ha) [%] | Percent (%) Visual Control FUMOF 83DAAA ([7]; 5 g ae/ha) [%] | other results
1 | C#CCOC(=O)c1nc(-c2ccc3cc[nH]c3c2F)c(F)c(N)c1Cl [Compound 5, prop-2-yn-1-yl 4-amino-3-chloro-5-fluoro-6-(7-fluoro-1H-indol-6-yl)picolinate] | 54.2 | 68.9 | 100 | 100 | 98 | 96.8 | 97.3 | 88 | 88.3 | 96 | 92.5 | 99 | 93.8 | 66.7 | 78.3 | 90.7 | 60 | 77 | 85 | 41.7 | Percent (%) Visual Control FUMOF 83DAAA ([7]; 10 g ae/ha): 65%; Percent (%) Visual Control FUMOF 83DAAA ([7]; 20 g ae/ha): 93.3%; Percent (%) Visual Control PAPRH 66DAAA ([8]; 5 g ae/ha): 57.7%; Percent (%) Visual Control PAPRH 66DAAA ([8]; 10 g ae/ha): 70%; Percent (%) Visual Control PAPRH 66DAAA ([8]; 20 g ae/ha): 90%; Percent (%) Visual Control VERHE 66DAAA ([9]; 5 g ae/ha): 60%; Percent (%) Visual Control VERHE 66DAAA ([9]; 10 g ae/ha): 77.7%; Percent (%) Visual Control VERHE 66DAAA ([9]; 20 g ae/ha): 91%; Percent (%) Visual Control CENCY 85DAAA ([10]; 5 g ae/ha): 65%; Percent (%) Visual Control CENCY 85DAAA ([10]; 10 g ae/ha): 87.5%; Percent (%) Visual Control CENCY 85DAAA ([10]; 20 g ae/ha): 95%; Percent (%) Visual Control PAPRH 85DAAA ([11]; 5 g ae/ha): 92.5%; Percent (%) Visual Control PAPRH 85DAAA ([11]; 10 g ae/ha): 97.3%; Percent (%) Visual Control PAPRH 85DAAA ([11]; 20 g ae/ha): 98.8%
2 | N#CCOC(=O)c1nc(-c2ccc3cc[nH]c3c2F)c(F)c(N)c1Cl [Compound 6, cyanomethyl 4-amino-3-chloro-5-fluoro-6-(7-fluoro-1H-indol-6-yl)picolinate] | 57 | 64 | 98.3 | 100 | 98 | 98 | 98 | 99 | 87.5 | 96 | 87.8 | 99 | 94.5 | 68.7 | 81 | 90 | 55 | 77.7 | 86 | 41.7 | Percent (%) Visual Control FUMOF 83DAAA ([7]; 10 g ae/ha): 69.3%; Percent (%) Visual Control FUMOF 83DAAA ([7]; 20 g ae/ha): 96%; Percent (%) Visual Control PAPRH 66DAAA ([8]; 5 g ae/ha): 60%; Percent (%) Visual Control PAPRH 66DAAA ([8]; 10 g ae/ha): 75%; Percent (%) Visual Control PAPRH 66DAAA ([8]; 20 g ae/ha): 91%; Percent (%) Visual Control VERHE 66DAAA ([9]; 5 g ae/ha): 60%; Percent (%) Visual Control VERHE 66DAAA ([9]; 10 g ae/ha): 81.7%; Percent (%) Visual Control VERHE 66DAAA ([9]; 20 g ae/ha): 91%; Percent (%) Visual Control CENCY 85DAAA ([10]; 5 g ae/ha): 60%; Percent (%) Visual Control CENCY 85DAAA ([10]; 10 g ae/ha): 92.5%; Percent (%) Visual Control CENCY 85DAAA ([10]; 20 g ae/ha): 97%; Percent (%) Visual Control PAPRH 85DAAA ([11]; 5 g ae/ha): 94.5%; Percent (%) Visual Control PAPRH 85DAAA ([11]; 10 g ae/ha): 97.3%; Percent (%) Visual Control PAPRH 85DAAA ([11]; 20 g ae/ha): 99.8%
3 | Nc1c(F)c(-c2ccc3cc[nH]c3c2F)nc(C(=O)OCc2ccccc2)c1Cl [Compound 7, benzyl 4-amino-3-chloro-5-fluoro-6-(7-fluoro-1H-indol-6-yl)picolinate, reference compound] | 57 | 50.5 | 100 | 100 | 98 | 98 | 98 | 76.7 | 76.3 | 76.7 | 80 | 99 | 85.8 | 59.3 | 68.3 | 80.3 | 51.7 | 58.3 | 79.3 | 26.7 | Percent (%) Visual Control FUMOF 83DAAA ([7]; 10 g ae/ha): 45%; Percent (%) Visual Control FUMOF 83DAAA ([7]; 20 g ae/ha): 58.3%; Percent (%) Visual Control PAPRH 66DAAA ([8]; 5 g ae/ha): 53.3%; Percent (%) Visual Control PAPRH 66DAAA ([8]; 10 g ae/ha): 62.7%; Percent (%) Visual Control PAPRH 66DAAA ([8]; 20 g ae/ha): 75%; Percent (%) Visual Control VERHE 66DAAA ([9]; 5 g ae/ha): 50%; Percent (%) Visual Control VERHE 66DAAA ([9]; 10 g ae/ha): 56%; Percent (%) Visual Control VERHE 66DAAA ([9]; 20 g ae/ha): 70%; Percent (%) Visual Control CENCY 85DAAA ([10]; 5 g ae/ha): 32.5%; Percent (%) Visual Control CENCY 85DAAA ([10]; 10 g ae/ha): 53.8%; Percent (%) Visual Control CENCY 85DAAA ([10]; 20 g ae/ha): 62.5%; Percent (%) Visual Control PAPRH 85DAAA ([11]; 5 g ae/ha): 66.3%; Percent (%) Visual Control PAPRH 85DAAA ([11]; 10 g ae/ha): 78.8%; Percent (%) Visual Control PAPRH 85DAAA ([11]; 20 g ae/ha): 80%
